How the values were obtained:
lymphocytes = assay: aberrant enzyme activities in febrile children, lymphocytes (Table 7); type: cell-based, human
monocytes = assay: aberrant enzyme activities in febrile children, monocytes (Table 7); type: cell-based, human
[1] = system: acute lympholytic Ficoll prepared lymphocytes; assay: amino peptidase activity in acute lymphocytic leukemia lymphocytes; type: cell-based, human; conditions: FIG. 4B
Source text: The cell's ability to fight off an invader lies within its genetics and therefore cell type. The "readiness" however of any genetically capable group of cells to defend is different. A measure of this "readiness" is manifest in the available proteolytic enzymes contained within vacuoles or on the surface of the cell. The assay compound hydrolysis rate increases with increased mass of enzymes giving a picture of immune competence both in number of cells and activity level. […] Images were generated using Universal Imaging.

granulocytes = assay: aberrant enzyme activities in febrile children, granulocytes (Table 7); type: cell-based, human
[2] = system: metabolically active whole cell; assay: substrate panel in normals and HIV + patients, TB infection (Table 4); type: cell-based, human; set-up: unit not given here
Protocol: A panel of assay compounds are assembled consisting of Ala-aminopeptidase and Lys-aminopeptidase, Dipeptidyl peptidase IV (Ala-Ala)2 rhodamine 110 and Cathepsin D to indicate possible TB infection in AIDS related cases.
A panel Of enzymatic substrates is performed consisting of Ala-aminopeptidase and Lys-aminopeptidase, Dipeptidyl peptidase IV (Ala-Ala)2 rhodamine 110 and Cathepsin D to indicate possible TB infection in AIDS related cases.

dipeptide reagent = assay: effect of sodium chloride on dipeptide reagent; type: biochemical; conditions: 7 mM, pH 6.5 to 8.7
Source text: Inhibitors and poisons (or toxins) are components that can be added to reduce the activity of non-targeted enzymes that provide competing reactions for the leaving group. Inhibitors are usually very selective for a particular enzyme. For example, EDTA only works with enzymes requiring Ca^+2, Mg^+2 and some other metals. […] Preferred inhibitors for particular enzymes are included in Table 1.

aminopeptidase [3] = conditions: cited from earlier work
aminopeptidase [4] = assay: inhibition of aminopeptidase reaction with (H-L-Asp)2 rhodamine 110; type: biochemical; conditions: approximately 10 mM; substrate (H-L-Asp)2 rhodamine 110
Source text: The chemical nature of the buffer is important to the reactivity Of the assay compound with the cellular enzymes. […] In addition, the assay compound hydrolysis by the enzyme occurs at an increased rate of reaction.

cathepsin B = conditions: cited from earlier work
[5] = system: metabolically active cell; conditions: even when buffered
Protocol: Viability is confirmed with Trypan Blue or PI-FDA over a time period of 10 seconds to 30 minutes. If the viability of the cell sample at between one and three million cells/mL decreases by 10% then the salt of the compound is rejected and another salt of the assay compound is synthesized.

CC(C)C[C@H](N)C(=O)Nc1ccc2c(c1)Oc1cc(NC(=O)[C@@H](N)CC(C)C)ccc1C21OC(=O)c2ccccc21 [LEU, (Leu)2 Rho 110]
130.5: MEAN DELTA FL ([2]; HIV + PATIENTS)
.smallcircle.: aberrant enzyme activity, LYMPHS (lymphocytes; P97 Pyelonephritis) | aberrant enzyme activity, LYMPHS (lymphocytes; P99 Viral Syndrome) | aberrant enzyme activity, LYMPHS (lymphocytes; P102 UTI) | aberrant enzyme activity, MONOS (monocytes; P99 Viral Syndrome) | aberrant enzyme activity, MONOS (monocytes; P102 UTI) | aberrant enzyme activity, GRANS (granulocytes; P97 Pyelonephritis) | aberrant enzyme activity, GRANS (granulocytes; P99 Viral Syndrome) | aberrant enzyme activity, GRANS (granulocytes; P102 UTI)
+ (>0.25 Increase over normal range): aberrant enzyme activity, LYMPHS (lymphocytes; P88 Enteritis) | aberrant enzyme activity, LYMPHS (lymphocytes; P89 Viral Stomatitis) | aberrant enzyme activity, LYMPHS (lymphocytes; P92 Adenitis) | aberrant enzyme activity, LYMPHS (lymphocytes; P95 Viral Syndrome) | aberrant enzyme activity, LYMPHS (lymphocytes; P96 Viral Syndrome) | aberrant enzyme activity, LYMPHS (lymphocytes; P101 Fever -- Unknown Origin) | aberrant enzyme activity, LYMPHS (lymphocytes; P103 Viral Syndrome) | aberrant enzyme activity, MONOS (monocytes; P88 Enteritis) | aberrant enzyme activity, MONOS (monocytes; P89 Viral Stomatitis) | aberrant enzyme activity, MONOS (monocytes; P92 Adenitis) | aberrant enzyme activity, MONOS (monocytes; P95 Viral Syndrome) | aberrant enzyme activity, MONOS (monocytes; P96 Viral Syndrome) | aberrant enzyme activity, MONOS (monocytes; P97 Pyelonephritis) | aberrant enzyme activity, MONOS (monocytes; P101 Fever -- Unknown Origin) | aberrant enzyme activity, MONOS (monocytes; P103 Viral Syndrome) | aberrant enzyme activity, GRANS (granulocytes; P88 Enteritis) | aberrant enzyme activity, GRANS (granulocytes; P89 Viral Stomatitis) | aberrant enzyme activity, GRANS (granulocytes; P92 Adenitis) | aberrant enzyme activity, GRANS (granulocytes; P95 Viral Syndrome) | aberrant enzyme activity, GRANS (granulocytes; P96 Viral Syndrome) | aberrant enzyme activity, GRANS (granulocytes; P101 Fever -- Unknown Origin) | aberrant enzyme activity, GRANS (granulocytes; P103 Viral Syndrome)
lost their enzymatic activity: amino peptidase activity [1]
259.6: MEAN DELTA FL ([2]; NORMALS)

[Cl-].[Na+] [sodium chloride]
slightly inhibitory effect: inhibitory effect on dipeptide reagent (dipeptide reagent)

CC(C)C[C@H](NC(=O)[C@@H](O)[C@H](N)Cc1ccccc1)C(=O)O [bestatin]
selectively inhibits aminopeptidase: inhibition of aminopeptidase (aminopeptidase [3])

[Ca+2].[Cl-].[Cl-] [calcium chloride]
inhibitory: inhibitory to the enzyme reaction (aminopeptidase [4])

CC(=O)N[C@@H](CC(C)C)C(=O)N[C@@H](CC(C)C)C(=O)N[C@H](C=O)CCCNC(=N)N [leupeptin]
selectively inhibits cathepsin B: inhibition of cathepsin B (cathepsin B)

Br.Cc1ncc(C)n2nc(CCc3nc(-c4ccccc4)cn3C)nc12 [hydrogen bromide (HBr), hydrogen bromide]
kills cells: cell killing [5]

Source: patent US5698411A, “Method for determining activity of enzymes in metabolically active whole cells” (priority 1995, dated 1997)
